From ChEMBL document CHEMBL1201862, “PubChem BioAssay data set” (2004)
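Test compounds were applied to cells in 96-well plates for 48 hours at 5 doses. GI50 is the concentration that inhibits growth by half.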 Calls of active or inactive are those of the source. Rule as the data show it: active = GI50 up to about 1.1 µM and inactive = higher.

Key:
Test in all cases: NCI anticancer screen, dose series, 48 h
[1] = system: UACC-62
[2] = system: LOX IMVI
[3] = system: OVCAR-8
[4] = system: U-251
[5] = system: SR
[6] = system: SNB-19
[7] = system: COLO 205
[8] = system: HCT-15
[9] = system: HL-60
[10] = system: Hs-578T
[11] = system: NCI-H226
[12] = system: HOP-92
[13] = system: CCRF-CEM
[14] = system: MOLT-4
[15] = system: SF-295
[16] = system: NCI-H522
[17] = system: CAKI-1
[18] = system: OVCAR-3
[19] = system: K562
[20] = system: PC-3

COc1cc(C2NCCC(c3ccccc3)(c3ccccc3)N2)cc(OC)c1OC (centres undefined)
GI50 [1]: 25.2 µM (inactive)
GI50 [2]: 13.5 µM (inactive)
GI50 [3]: 60.4 µM (inactive)
GI50 [4]: 32.9 µM (inactive)
GI50 [5]: 26.4 µM (inactive)
GI50 [6]: 55.7 µM (inactive)
GI50 [7]: 16.1 µM (inactive)
GI50 [8]: 38.5 µM
GI50 [9]: 5.83 µM (inactive)
GI50 [10]: 26.1 µM (inactive)
GI50 [11]: 12.7 µM (inactive)
GI50 [12]: 3.52 µM (inactive)
GI50 [13]: 39.3 µM (inactive)
GI50 [14]: > 10 µM (inactive)
GI50 [15]: 7.1 µM (inactive)

c1ccc2c3c(ccc2c1)CSCc1ccc2ccccc2c1-3
GI50 [16]: > 100 µM (inactive)
GI50 [1]: > 100 µM (inactive)
GI50 [2]: > 100 µM (inactive)
GI50 [17]: > 100 µM (inactive)
GI50 [3]: > 100 µM (inactive)
GI50 [4]: > 100 µM (inactive)
GI50 [5]: 33 µM (inactive)
GI50 [6]: > 100 µM (inactive)
GI50 [7]: > 100 µM (inactive)
GI50 [18]: > 100 µM (inactive)
GI50 [8]: > 100 µM
GI50 [9]: > 10 µM (inactive)
GI50 [19]: > 100 µM (inactive)
GI50 [10]: > 100 µM (inactive)
GI50 [20]: > 100 µM (inactive)
GI50 [12]: 22.2 µM (inactive)
GI50 [13]: > 100 µM (inactive)
GI50 [14]: 36.6 µM (inactive)
GI50 [15]: > 100 µM (inactive)

CCC(C)C(NC(=O)C(CCCCN)NC(=O)C(NC(=O)C(CCC(N)=O)NC(=O)C(CCCNC(=N)N)NC(C)=O)C(C)CC)C(=O)NC(Cc1c[nH]c2ccccc12)C(=O)NC(Cc1ccccc1)C(=O)NC(CCC(N)=O)C(=O)NC(CC(N)=O)C(=O)NC(CCCNC(=N)N)C(=O)NC(CCCNC(=N)N)C(=O)NC(CCSC)C(=O)NC(CCCCN)C(=O)NC(Cc1c[nH]c2ccccc12)C(=O)NC(CCCCN)C(=O)NC(CCCCN)C(N)=O (centres undefined)
GI50 [16]: > 50 µM (inactive)
GI50 [1]: > 50 µM (inactive)
GI50 [2]: > 50 µM (inactive)
GI50 [17]: 35.5 µM (inactive)
GI50 [3]: 49.2 µM (inactive)
GI50 [4]: 17.8 µM (inactive)
GI50 [5]: > 50 µM (inactive)
GI50 [6]: > 50 µM (inactive)
GI50 [7]: 38.3 µM (inactive)
GI50 [18]: 31.1 µM (inactive)
GI50 [8]: > 50 µM
GI50 [9]: > 50 µM (inactive)
GI50 [19]: 22.8 µM (inactive)
GI50 [10]: > 50 µM (inactive)
GI50 [20]: > 50 µM (inactive)
GI50 [12]: > 50 µM (inactive)
GI50 [13]: 22.4 µM (inactive)
GI50 [14]: > 50 µM (inactive)
GI50 [15]: > 50 µM (inactive)

CC(C)(C)C1=CC(C)(n2[nH]c(=O)n(-c3ccccc3)c2=O)C=C(C(C)(C)C)C1=O
GI50 [16]: > 100 µM (inactive)
GI50 [1]: 75.3 µM (inactive)
GI50 [2]: > 100 µM (inactive)
GI50 [17]: > 100 µM (inactive)
GI50 [3]: > 100 µM (inactive)
GI50 [4]: > 100 µM (inactive)
GI50 [6]: > 100 µM (inactive)
GI50 [7]: > 100 µM (inactive)
GI50 [8]: > 100 µM
GI50 [19]: 47 µM (inactive)
GI50 [10]: > 100 µM (inactive)
GI50 [20]: > 100 µM (inactive)
GI50 [11]: > 100 µM (inactive)
GI50 [12]: > 100 µM (inactive)
GI50 [15]: > 100 µM (inactive)

CN(CCNC(=O)c1nn(-c2ccc(Cl)cc2Cl)c2c1Cc1ccccc1-2)CCNC(=O)c1nn(-c2ccc(Cl)cc2Cl)c2c1Cc1ccccc1-2
GI50 [16]: 1.58 µM (inactive)
GI50 [1]: 1.85 µM (inactive)
GI50 [2]: 2.07 µM (inactive)
GI50 [17]: 4.94 µM (inactive)
GI50 [3]: 2.07 µM (inactive)
GI50 [4]: 2.49 µM (inactive)
GI50 [6]: 3.71 µM (inactive)
GI50 [7]: 1.81 µM (inactive)
GI50 [18]: 3.55 µM (inactive)
GI50 [8]: 2.29 µM
GI50 [9]: 1.55 µM (inactive)
GI50 [19]: 1.57 µM (inactive)
GI50 [10]: 1.53 µM (inactive)
GI50 [20]: 5.87 µM (inactive)
GI50 [12]: 1.99 µM (inactive)
GI50 [13]: 2.27 µM (inactive)
GI50 [14]: 2.12 µM (inactive)
GI50 [15]: 2.43 µM (inactive)

COc1cc(COC(=O)NC(Cc2cccs2)C(=O)O)c([N+](=O)[O-])cc1OC (centres undefined)
GI50 [1]: > 100 µM (inactive)
GI50 [3]: > 100 µM (inactive)
GI50 [4]: > 100 µM (inactive)
GI50 [5]: > 100 µM (inactive)
GI50 [6]: > 100 µM (inactive)
GI50 [7]: > 100 µM (inactive)
GI50 [18]: > 100 µM (inactive)
GI50 [8]: > 100 µM
GI50 [9]: > 100 µM (inactive)
GI50 [19]: > 100 µM (inactive)
GI50 [10]: > 100 µM (inactive)
GI50 [20]: > 100 µM (inactive)
GI50 [11]: > 100 µM (inactive)
GI50 [12]: > 100 µM (inactive)
GI50 [13]: > 100 µM (inactive)
GI50 [14]: > 100 µM (inactive)
GI50 [15]: > 100 µM (inactive)

Cc1ccc(/N=N/c2c(O)c(C(=O)Nc3ccccc3)cc3ccccc23)c([N+](=O)[O-])c1
GI50 [16]: > 100 µM (inactive)
GI50 [1]: > 100 µM (inactive)
GI50 [2]: > 100 µM (inactive)
GI50 [17]: > 100 µM (inactive)
GI50 [3]: > 100 µM (inactive)
GI50 [4]: > 100 µM (inactive)
GI50 [6]: > 100 µM (inactive)
GI50 [7]: > 100 µM (inactive)
GI50 [18]: > 100 µM (inactive)
GI50 [8]: > 100 µM
GI50 [19]: > 100 µM (inactive)
GI50 [10]: > 100 µM (inactive)
GI50 [20]: > 100 µM (inactive)
GI50 [12]: > 100 µM (inactive)
GI50 [13]: > 100 µM (inactive)
GI50 [14]: > 100 µM (inactive)
GI50 [15]: 70.8 µM (inactive)

O=C1C=C(Cl)C(=O)C(c2ccc(Cl)cc2)=C1
GI50 [16]: 5.05 µM (inactive)
GI50 [1]: 17.4 µM (inactive)
GI50 [2]: 16.1 µM (inactive)
GI50 [17]: 17.6 µM (inactive)
GI50 [3]: 18.2 µM (inactive)
GI50 [4]: 15.2 µM (inactive)
GI50 [6]: 89.3 µM (inactive)
GI50 [7]: 16.4 µM (inactive)
GI50 [18]: 16.6 µM (inactive)
GI50 [8]: 18.8 µM
GI50 [9]: 18.8 µM (inactive)
GI50 [19]: 4.19 µM (inactive)
GI50 [10]: 26.5 µM (inactive)
GI50 [20]: 15.3 µM (inactive)
GI50 [11]: 20.2 µM (inactive)
GI50 [12]: 19.3 µM (inactive)
GI50 [13]: 3.35 µM (inactive)
GI50 [14]: 4.03 µM (inactive)
GI50 [15]: 45.6 µM (inactive)
